Experimental data: EP1228058B1, “BENZOPYRANYL GUANIDINE DERIVATIVES, PROCESS FOR PREPARATION THEREOF, AND PHARMACEUTICAL COMPOSITIONS CONTAINING THEM” (Dongbu Hannong Chemical Co., Ltd., priority 1999, dated 2001)

How the values were obtained:
HUVEC = assay: Inhibition of HUVEC tube formation on Matrigel; assay type: cell-based, Human; parameters: key: -: no effect; +/-: week effect; +: moderate effect; ++: strong effect
Description: HUVEC (Human umbilical vein endothelial cells, ATCC CRL-1730) were cultured, and tubulogenesis was induced in vascular endothelial cells by plating them onto the surface of Matrigel for several hours. The effects on tube formation of the test compounds were compared with the vehicle treated controls, then confirmed their in vitro anti-angiogenic effect indirectly.

RAW 264.7 cells = assay: Inhibition of LPS-induced NO production (Griess reagent); assay type: cell-based, murine; details: Mus musculus, 24 hours; for inhibition at 100 µM: RAW264.7, 100 uM; for inhibition at 33 µM: RAW264.7, 33 uM
Description: Using RPMI1640 media supplemented with 10% fetal bovine serum (FBS), RAW 264.7 cells (obtained from American Type Culture Collection), a murine macrophage cell line, were cultured at 37 °C in a 5% CO2 incubator. The RAW264.7 cells were harvested and cell density was adjusted to 5x10^5/ml with a RPMI medium supplemented with 0.5% FBS and plated at 5x10^4 cells/well to 96-well plates, which were then cultured for 20 hr in a CO2 incubator. After removal of the media, the cells were pre-treated for 1 hour with fresh media containing 33 uM and 100 uM of test compounds. The test compounds were dissolved in DMSO and diluted to respective concentration in the media. In order to minimize DMSO effect on the nitric oxide formation by the RAW264.7 cells in the wells, the media were allowed to contain DMSO at a concentration of 0.1 % or less.
After completion of one hour pre-treatment, lipopolysaccharide (LPS, E. coli serotype 055:B5) was added to activate the cells, which were, then, maintained for 24 hours in a CO2 incubator. As a result of the activation of RAW264.7 cells with LPS, NO was formed. The NO released into the media was in a form of nitrite NO2^- and quantitatively measured using the Griess reagent. A control was treated only with vehicle instead of test compounds.
The inhibitory effects of the test compounds against NO production were determined as the reduction of NO quantity compared with that of the control group.

[1] = tested on: ischemic heart models of rats; assay: Heart protective (anti-ischemic) activity in ischemic heart models of anesthetized rats; assay type: in vivo; details: 45 min occlusion, 90 min reperfusion
Description: Male rats (350-450 g, obtained from the Experimental Animal Team of the Korea Research Institute of Chemical Technology) were anesthetized by the intraperitoneal injection of pentobarbital at a dose of 75 mg/kg. After trachetomy, the rats were rendered to respire artificially at a rate of 60/min with a stroke volume of 10 ml/kg. Cannulars were inserted into the fermoral vein and the fermoral artery and used for drug administration and blood pressure measurement, respectively.
In the ischemic myocardium damage models, the body temperature has an important influence on the results. To avoid the change in the body temperature, a body temperature measuring probe was inserted into the rectum of each rat and the body temperature was constantly kept at 37 °C with the aid of a homeothermic blanket control unit.
Afterwards, during testing, a continuous measurement was made of the mean arterial blood pressures and heart rates from the rats. For the measurement of the blood pressure, a pressure transducer, such as that manufactured by Grass Ins., MA, U.S.A., identified as Model Statham P23XL, was used. The heart rate was measured by a tachometer, such as that manufactured by Gould Inc., OH, U.S.A., identified as Biotachometer. In addition, all of the changes occurring were continuously recorded through the Gould 2000 chart recorder, manufactured by Gould Inc.
The left coronary artery was occluded according to the Selye H. method as follows. The rats underwent a left thoracotomy operation for partial opening of the chest and the right-side chest was pressurized by the middle finger of the left hand to push the heart out. Immediately after the left anterior descending coronary artery hereinafter referred to as (LAD) was carefully stitched using a suture needle with 5-0 silk ligature, the heart was then repositioned in the thoracic cavity while both ends of the ligature were situated outside. The opposite ligature ends were passed through a PE tube (PE100, 2.5 cm) and allowed to stand loose for 20 min for stabilization. Via the cannula inserted into the femoral vein, vehicles or drugs were administered into the rats which were rendered to stand for 30 min in order to sufficiently elicit the efficacies of the drugs. BMS-180448 was used as a control drug and the i.v.administration dose was 0.3 mg/kg for all test drugs of interest and the control drug.
Next, the PE tube which had the doubled strands of the ligature passed therethrough was pushed toward the heart and then, set upright by tightly pulling end regions of the ligature with a hemostatic pincette while pressing the coronary artery. The PE tube was allowed to stand for 45 min for the occlusion of the coronary artery, followed by the removal of the hemostatic pincette and then, by the reperfusion for 90 min.
After the reocclusion of the coronary artery in accordance with the above procedure, the rats were administered with 2 ml of a 1% Evans blue through an intravenous route. Subsequently, an excess of pentobarbital was intravenously injected to kill the rats, after which the heart was removed and then, deprived of the right ventricle and both atria. The left ventricle was cut horizontally to the heart apex into 5 or 6 slices which were weighed. From the surface of each slice, images were input with the aid of a Hi-scope into a computer installed with an image analyzing program (Image Pro Plus). From the images input into the computer, the area of the normal blood stream tissue region which appeared blue in a computer monitor and the area which appeared colorless were measured. The percentage of the colorless area to the total area of each slice was calculated and multiplied by the weight of each slice to determine the area at risk (AAR) of each slice. […]

[2] = ORAC (oxygen-radical absorbance capacity) assay; assay type: biochemical; details: 1 ORAC unit = net protection by 1 uM Trolox
Description: The method utilized β-PE (β-phycoerythrin) as an indicator protein, and AAPH (2,2'-azobis(2-amidinopropane) dihydrochloride) as a peroxy radical generator. Reaction mixtures consisted of test compounds (10^-6M and 10^-4M), β-PE (1.76 x 10^-8M), and AAPH (3 x 10^-3 M) in 75 mM phosphate buffer (pH 7.0). A final volume of 2 ml was used in 24 well plates. Test compounds were first dissolved in acetone and then added to the reaction mixture. Once AAPH was added, the reaction was initiated at 37 °C and the fluorescence (485 nm excitation, 590 nm emission) was measured every 5 min using Fluorescence reader (FL600, Biotek Instrument). The ORAC units were calculated based on the area under the fluorescence curve of β-PE in the presence of the test compound compared to the area generated by 1 uM Trolox. 1 ORAC unit represents the net protection provided by 1 uM Trolox.

| SMILES | Inhibitory Effects on Tube Formation (HUVEC; 10 uM) | Inhibitory Effects on Tube Formation (HUVEC; 100 uM) | inhibition at 100 µM (RAW 264.7 cells) [%] | Anti-ischemic Activity (in vivo, rats) (0.3 mg/kg i.v.) IZ/AAR (%) [1] [%] | ORAC units ([2]; Conc. 10^-4 M) [ORAC units] | ORAC units ([2]; Conc. 10^-6 M) [ORAC units] | inhibition at 33 µM (RAW 264.7 cells) [%] |
| --- | --- | --- | --- | --- | --- | --- | --- |
| COC(OC)[C@@]1(C)Oc2ccc(N)cc2[C@@H](NC(=NC#N)NCc2ccccc2)[C@@H]1O [Example 40, (2S, 3S, 4R)-N''-cyano-N-(6 - amino-3,4-dihydro-3-hydroxy-2-methyl-2-dimethoxymethyl-2H-benzopyran-4-yl)-N'-benzylguanidine] | + | ++ | 26 | 30.25 | 3.250 | 2.047 |  |
| COC(OC)[C@@]1(C)Oc2ccc([N+](=O)[O-])cc2[C@@H](NC(=NC#N)NCc2ccccc2)[C@@H]1OC(C)=O [Example 38, (2S, 3S, 4R)-N''-cyano-N-(6-nitro-3,4-dihydro-3-acetoxy-2-methyl-2-dimethoxymethyl-2H-benzopyran-4-yl)-N'-benzylguanidine] |  |  | 85 | 51.13 |  |  | 56 |
| COC(OC)[C@@]1(C)Oc2ccc([N+](=O)[O-])cc2[C@@H](NC(=NC#N)NCc2ccccc2)[C@@H]1O [Example 25, (2S, 3S, 4R)-N''-cyano-N-(6-nitro-3,4-dihydro-3-hydroxy-2-methyl-2-dimethoxymethyl-2H-benzopyran-4-yl)-N'-benzylguanidine] |  |  | 54 | 48.55 |  |  | 39 |
| COC(OC)[C@@]1(C)Oc2ccc([N+](=O)[O-])cc2[C@H](NC(=NC#N)NCc2ccccc2)[C@H]1O [Example 24, (2S, 3R, 4S)-N''-cyano-N-(6-nitro-3,4-dihydro-3-hydroxy-2-methyl-2-dimethoxymethyl-2H-benzopyran-4-yl)-N'-benzylguanidine] |  | + | 48 | 48.48 |  |  | 16 |
| COC(OC)[C@@]1(C)Oc2ccc([N+](=O)[O-])cc2[C@H](NC(=NC#N)Nc2ccccc2Cl)[C@H]1O [Example 32, (2S, 3R, 4S)-N''-cyano-N-(6-nitro-3,4-dihydro-3-hydroxy-2-methyl-2-dimethoxymethyl-2H-benzopyran-4-yl)-N'-(2-chlorophenyl)guanidine] |  |  | 83 | 44.72 |  |  |  |
